The results in this text go back to US20220143148A1, “COMPOSITIONS AND METHODS FOR MODULATING CGRP SIGNALING TO REGULATE INTESTINAL INNATE LYMPHOID CELLS” (The Broad Institute, Inc., priority 2019, published 2022).

This assay deals with intestinal KLRG1+ ILC2s. As to the kind of experiment: Bulk RNA-seq of intestinal KLRG1+ ILC2s stimulated in vitro. It is filed as cell-based, mouse. An excerpt: To determine if α-CGRP can directly trigger signaling in ILC2s and impact their transcriptional states under inflammatory conditions, Applicants performed bulk RNA-seq of KLRG1^+ ILC2s isolated from the small intestine and stimulated in vitro with IL-25 alone or together with α-CGRP. […] Thus, α-CGRP inhibits IL-25-induced proliferation and activation of intestinal KLRG1+ILC2s.
The presence at homeostasis of α-CGRP receptors on ILC2s and α-CGRP's expression on ChAT^+ intestinal neurons led Applicants to hypothesize that it has an effect on ILC2s during homeostasis. To test this hypothesis, Applicants next measured the expression profiles of intestinal KLRG1^+ ILC2s stimulated in vitro by α-CGRP alone, and identified genes differentially expressed under this signal (FIG. 6D, Methods).
ILC2 culture. Sort-purified intestinal KLRG1^+ ILC2s were incubated in RPMI supplemented with 10% FCS, 10 mM Hepes, 1 mM sodium pyruvate, 10% FBS, 80 μm 2-mercaptoethanol, 2 mM glutamine, 100 U/ml penicillin, […] streptomycin, 100 ng/ml IL-2 and 100 ng/ml IL-7 in 96-well round bottom plate at 37° C. and 5% CO2. If indicated, the culture was supplemented with 100 ng/ml IL-25. For the in vitro proliferation assay, cells from different mice were pooled and labeled with CellTrace Violet, and then cultured at 1,000-1,500 cells per well with 10 μg/ml α-CGRP for 60 hours. When indicated, 10 μM forskolin or 1 μM SQ 22, 536 in DMSO was supplied and cells were cultured for 40 hours. For bulk RNA-seq, cells from individual mice were stimulated at 200 cells per well with 0.4 μg/ml α-CGRP for 3 hours. For bulk ATAC-seq, cells were stimulated with 0.4 μg/ml α-CGRP for 2 hours.
Bulk RNA-seq. 200 ILC2s from each condition were lysed in 10 ul TCL buffer plus 0.5% 2-Mercaptoethanol. Libraries were processed with SMART-Seq2 (Picelli et al., 2013) with at least three replicates per condition, and paired-end sequenced (75 bp×2) with a […] Nextseq 500 high output V2 kit.
Reads were aligned to the mouse reference genome (NCBI 38, mm10) using Bowtie (Langmead et al., 2009) with default parameters, and expression abundances were estimated using RSEM software (Li and Dewey, 2011). The differential gene expression analysis was performed with edgeR (Robinson et al., 2010) with default parameters.

As for “α-CGRP: neuropeptide alpha-calcitonin gene-related peptide, encoded by exon 5 of Calca; administered as peptide”, the Il5 expression result (IL-25 together with α-CGRP in vitro) is “further induced”. Further, the IL-25-induced activation signature entry (IL-25 together with α-CGRP in vitro, adjusted P<0.001, t-test) is listed as “significantly suppressed”. Moreover, where the note is “α-CGRP alone in vitro”, the “expression of adenylate cyclase-mediated GPCR signaling genes (Adrb2, Adora2a, Pde4b, Akap12) and cAMP response genes (Areg, Crem, Il5)” value was “induced expression”; the “expression of cell cycle arrest genes (Cdkn1a, Gadd45a, Akap12) and negative regulators of ILC2 expansion (Adrb2, Pdcd1)” value was “induced expression”.
